Test results reported in patent US9279803B2, “Method of identifying patients not suitable for high-dose cyclophosphamide treatment” (The Johns Hopkins University, priority 2006, dated 2016).

System: white blood cell count (WBC)
Conditions: preliminary results
Method: Additionally, ALDH levels in the target peripheral lymphocytes of high-dose cyclophosphamide treatment may render those cells resistant to cyclophosphamide and can lead to worsened clinical outcome or disease relapse. In a series of multiple sclerosis (MS) patients, blood was analyzed to determine the relative levels of aldehyde dehydrogenease. The banked blood was obtained from MS patients prior to treatment with high-dose cyclophosphamide.

Structure (SMILES): O=P1(N(CCCl)CCCl)NCCCO1 (centres unmarked) [cyclophosphamide]
- nadir WBC following high-dose cyclophosphamide treatment (MS patient who did not respond and relapsed, higher ALDH activity in banked blood): 24
- WBC reached following high-dose cyclophosphamide treatment (MS patient who responded, much lower ALDH activity in banked blood): 0
